This note sets out measurements from ChEMBL document CHEMBL1122080, “2- and 6-methyl-1,4-naphthoquinone derivatives and potential bioreductive alkylating agents” (1982).

Holding throughout (format): functional
The test system of test [1] is Mus musculus. Description: Ratio of the survival time of treated to control animals at dose 5 mg/kg.
The subject of test [2] is Mus musculus. Description: Ratio of the survival time of treated to control animals at dose 10 mg/kg.
The test system of test [3] is Mus musculus. Description: Ratio of the survival time of treated to control animals at dose 2.5 mg/kg.
Test [4] concerns Mus musculus. Description: Average weight change in mice bearing sarcoma 180 ascites cells at dose 10 mg/kg.
Test [5] has as its system Mus musculus. Description: Average weight change in mice bearing sarcoma 180 ascites cells at dose 2.5 mg/kg.
Test [6] deals with Mus musculus. Description: Ratio of the survival time of treated to control animals at dose 20 mg/kg.
Test [7] concerns Mus musculus. Description: Average weight change in mice bearing sarcoma 180 ascites cells at dose 20 mg/kg.
The test system of test [8] is Mus musculus. Description: Average weight change in mice bearing sarcoma 180 ascites cells at dose 5 mg/kg.

Consider `O=C1C=C(CBr)C(=O)c2ccccc21`, for which the T/C in the test with Mus musculus [1] is recorded as 1.73; in the test on Mus musculus [2], 1.49; with Mus musculus [3], 1.61; in the test on Mus musculus [6] it was 1.69. Further, the Average weight change is -7.7% with Mus musculus [4], 1.7% in the test with Mus musculus [5], -9.1% in the test on Mus musculus [7] and -5.4% with Mus musculus [8].
Consider `O=C1C=CC(=O)c2cc(CCl)ccc21`, for which the T/C with Mus musculus [1] is reported as 1.38; with Mus musculus [2], 1.05; with Mus musculus [6] it was 0.22. The Average weight change is -13.5% with Mus musculus [4] and -10.4% in the test with Mus musculus [8].
`O=C1C=CC(=O)c2cc(CO)ccc21`: the T/C stood at 0.17 in the test with Mus musculus [2] and 1.16 in the test on Mus musculus [3]. The Average weight change in the test with Mus musculus [5] was -9.1%.
Consider `CS(=O)(=O)OCc1ccc2c(c1)C(=O)C=CC2=O`, for which the T/C is recorded as 1.71 with Mus musculus [1], 1.43 in the test on Mus musculus [2] and 1.44 with Mus musculus [6]. The Average weight change in the test with Mus musculus [4] is reported as -11.8%; in the test with Mus musculus [7], -13.3%; in the test with Mus musculus [8], -6.3%.
Take `O=C(NCCCl)OCC1=CC(=O)c2ccccc2C1=O`: the T/C in the test with Mus musculus [1] is 2.08; in the test on Mus musculus [2] it was 1.71; in the test with Mus musculus [6] it was 1.96. Moreover, the Average weight change with Mus musculus [4] was -11.4%; with Mus musculus [7] it was -13.8%; in the test with Mus musculus [8], -4.6%.
`O=C1C=CC(=O)c2cc(CBr)ccc21`: the T/C with Mus musculus [1] was found to be 1.46; in the test on Mus musculus [2] it was 1.42; with Mus musculus [3], 2.07; in the test with Mus musculus [6] it was 0.57. Besides, the Average weight change with Mus musculus [4] is on record as -11.3%; in the test on Mus musculus [5], -4.2%; in the test on Mus musculus [7], -12.5%; in the test with Mus musculus [8], -7.8%.
Regarding `O=C(NCCCl)OCc1ccc2c(c1)C(=O)C=CC2=O`, the T/C in the test on Mus musculus [1] amounted to 1.47; in the test with Mus musculus [2], 1.63; in the test with Mus musculus [6] it was 0.5. The Average weight change in the test on Mus musculus [4] was -11.7%; in the test on Mus musculus [7] it was -17.3%; in the test with Mus musculus [8], -9%.
As to `Cc1ccc(S(=O)(=O)OCC2=CC(=O)c3ccccc3C2=O)cc1`, the figures for the T/C with Mus musculus [1], in the test with Mus musculus [2] and in the test on Mus musculus [6] were 1.77, 2.16 and 1.62, respectively. Also, the Average weight change with Mus musculus [4] is -4.4%; in the test with Mus musculus [7] it was -7.4%; in the test on Mus musculus [8], 2.8%.
As for `CCOCc1ccc2c(c1)C(=O)C=CC2=O`, the results for the T/C in the test with Mus musculus [1], with Mus musculus [2] and in the test on Mus musculus [6] were 1.32, 0.97 and 0.42, respectively. Besides, the Average weight change in the test with Mus musculus [4] is -10.3%; in the test with Mus musculus [8], -6.4%.
Turning to `Cc1ccc(S(=O)(=O)OCc2ccc3c(c2)C(=O)C=CC3=O)cc1`, the T/C with Mus musculus [1] worked out at 1.44; in the test with Mus musculus [2], 1.82; in the test on Mus musculus [6] it was 1.64. In addition, the Average weight change with Mus musculus [4] is -11.6%; in the test on Mus musculus [7], -15.2%; in the test on Mus musculus [8], -3.8%.
As for `COCC1=CC(=O)c2ccccc2C1=O`, the T/C was 0.98 in the test on Mus musculus [1], 1.38 in the test with Mus musculus [2] and 1.07 in the test on Mus musculus [6]. The Average weight change in the test on Mus musculus [4] is recorded as 1.6%; with Mus musculus [7], -19%; with Mus musculus [8] it was 17%.
For the molecule `O=C1C=C(CCl)C(=O)c2ccccc21`, the results for the T/C with Mus musculus [1], in the test with Mus musculus [2] and in the test with Mus musculus [6] were 1.4, 1.47 and 1.3, respectively. The results for the Average weight change in the test with Mus musculus [4], in the test with Mus musculus [7] and in the test with Mus musculus [8] were -9.8%, -16.4% and -2%, respectively.
For `CC(=O)OCC1=CC(=O)c2ccccc2C1=O`, the T/C in the test with Mus musculus [1] is recorded as 1.66; with Mus musculus [2] it was 1.62; in the test with Mus musculus [6], 0.7. Besides, the Average weight change in the test on Mus musculus [4] is on record as -14.4%; in the test on Mus musculus [7] it was -10.2%; in the test on Mus musculus [8], -9.3%.
In the case of `CNC(=O)OCC1=CC(=O)c2ccccc2C1=O`, the T/C with Mus musculus [1] is on record as 1.39; in the test with Mus musculus [2], 1.51; in the test on Mus musculus [6], 0.51. In addition, the Average weight change in the test with Mus musculus [4] was -10.5%; in the test with Mus musculus [7], -11.4%; with Mus musculus [8], -12.6%.
`Cc1ccc2c(c1)C(=O)C=CC2=O`: the T/C with Mus musculus [1] is 1.09; in the test with Mus musculus [2], 0.38; in the test on Mus musculus [6] it was 0.26. In addition, the Average weight change with Mus musculus [4] is on record as -11.1%; in the test with Mus musculus [8], -11.5%.
With `CC(=O)OCc1ccc2c(c1)C(=O)C=CC2=O`, the T/C was determined as 1.35 with Mus musculus [1], 0.93 with Mus musculus [2] and 0.48 in the test on Mus musculus [6]. The Average weight change is given as -7.4% in the test with Mus musculus [7] and -2.9% in the test on Mus musculus [8].
Consider `O=C1C=C(CO)C(=O)c2ccccc21`, for which the T/C in the test with Mus musculus [1] is on record as 1.16; in the test with Mus musculus [2], 0.45; in the test with Mus musculus [6], 0.22. Besides, the results for the Average weight change with Mus musculus [4] and in the test on Mus musculus [8] were -15.2% and -6.4%, respectively.
As to `CS(=O)(=O)OCC1=CC(=O)c2ccccc2C1=O`, the T/C in the test on Mus musculus [1] is 1.92; in the test with Mus musculus [2], 1.57; in the test with Mus musculus [6], 1.41. The Average weight change was -8.3% with Mus musculus [4], -8.8% in the test on Mus musculus [7] and -6.3% in the test with Mus musculus [8].
As to `CNC(=O)OCc1ccc2c(c1)C(=O)C=CC2=O`, the T/C was found to be 1.71 in the test on Mus musculus [1], 1.61 in the test with Mus musculus [2] and 0.81 in the test with Mus musculus [6]. Besides, the Average weight change is -7.8% in the test with Mus musculus [4], -10.8% in the test with Mus musculus [7] and -7.6% with Mus musculus [8].
Consider `CC1=CC(=O)c2ccccc2C1=O` [MENADIONE], for which the T/C was 0.85 in the test with Mus musculus [1], 1.03 with Mus musculus [2] and 1.34 with Mus musculus [6]. Further, the Average weight change is 17.3% in the test with Mus musculus [4], -2% with Mus musculus [7] and 18.7% with Mus musculus [8].
